In one test the target is Mcl-1 protein (UniProtKB primary accession number: Q07820) (Homo sapiens, UniProt Q07820). Briefly: Inhibition of Mcl-1 by fluorescence polarisation, Method 1. In kind it is binding. The following applies: read-out: IC50 (M) Mcl-1 FP. In short, it runs like this: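 Compounds were tested as 11-point serial dilutions at 5% final DMSO against 5 nM Mcl-1 with 1 nM fluorescein-labelled ligand in 10 mM HEPES, 150 mM NaCl, 0.05% Tween 20, pH 7.4. Relative binding potency was read by fluorescence polarisation.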

For test [1], the system named is H929 multiple myeloma tumour line. Briefly: In vitro cytotoxicity, Microculture Tetrazolium Assay. In kind it is cell-based. The following applies: H929 cells, 48 hours exposure, MTT, read-out: IC50 (μM) MTT H929. The procedure: The cytotoxicity studies were carried out on the H929 multiple myeloma tumour line.
The cells are distributed onto microplates and exposed to the test compounds for 48 hours.

The mark [2] stands for this setting: fluorescence polarisation, Method 1, or Method 2.
[3] abbreviates: fluorescence polarisation test, Method 2 values are underlined in the patent (underlining not visible here).

Like-named read-outs stand apart in the source and are kept apart here.

Mcl-1 protein, sequence (Q07820 whole entry): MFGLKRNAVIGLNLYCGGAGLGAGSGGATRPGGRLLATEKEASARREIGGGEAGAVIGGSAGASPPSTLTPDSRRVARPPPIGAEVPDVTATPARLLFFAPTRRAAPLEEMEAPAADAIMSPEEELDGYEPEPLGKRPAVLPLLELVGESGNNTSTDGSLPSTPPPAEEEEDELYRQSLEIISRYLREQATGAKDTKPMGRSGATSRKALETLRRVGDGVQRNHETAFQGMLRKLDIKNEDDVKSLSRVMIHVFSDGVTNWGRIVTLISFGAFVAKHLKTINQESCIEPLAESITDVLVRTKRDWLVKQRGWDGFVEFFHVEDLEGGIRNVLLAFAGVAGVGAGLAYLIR

The term IC50 denotes the concentration that inhibits the measured activity by half. As to `COc1nccc(COc2ccccc2CC(Oc2ncnc3sc(-c4ccc(F)cc4)c(-c4cnc(OCCN5CCN(C)CC5)c(Cl)c4C)c23)C(=O)O)n1` [Example 651, (2R)-2-{[(5Ra)-5-{5-chloro-4-methyl-6-[2-(4-methylpiperazin-1-yl)ethoxy]pyridin-3-yl}-6-(4-fluorophenyl)thieno[2,3-d]pyrimidin-4-yl]oxy}-3-{2-[(2-methoxypyrimidin-4-yl)methoxy]phenyl}propanoic acid], the IC50 at Mcl-1 protein (setting [2]) turned out to be 6.8e-09 M; in test [1] (Homo sapiens, NCI-H929, 48 h), 0.282 µM.

In the case of `Cc1c(-c2c(-c3ccco3)sc3ncnc(OC(Cc4ccccc4OCc4cnc(N5CCOCC5)nc4)C(=O)O)c23)ccc(OCCN2CCN(C)CC2)c1Cl` [Example 273, (2R)-2-{[(5Sa)-5-{3-chloro-2-methyl-4-[2-(4-methylpiperazin-1-yl)ethoxy]phenyl}-6-(furan-2-yl)thieno[2,3-d]pyrimidin-4-yl]oxy}-3-(2-{[2-(morpholin-4-yl)pyrimidin-5-yl]methoxy}phenyl)propanoic acid], the IC50 was 9.2e-09 M at Mcl-1 protein (setting [3]) and 0.905 µM in test [1] (Homo sapiens, NCI-H929, 48 h).

For `Cc1cscc1-c1sc2ncnc(O[C@H](Cc3ccccc3)C(=O)O)c2c1-c1ccc(OCCN2CCN(C)CC2)c(Cl)c1C` [Example 516, (2R)-2-{[(5Sa)-5-{3-chloro-2-methyl-4-[2-(4-methylpiperazin-1-yl)ethoxy]phenyl}-6-(4-methylthiophen-3-yl)thieno[2,3-d]pyrimidin-4-yl]oxy}-3-phenylpropanoic acid], the IC50 at Mcl-1 protein (setting [2]) amounted to 1.3e-07 M; in test [1] it was 5.07 µM.

Take `C#Cc1ccc(-c2sc3ncnc(OC(Cc4ccccc4OC)C(=O)O)c3c2-c2ccc(OCCN3CCN(C)CC3)c(Cl)c2C)o1` [Example 578, (2R)-2-{[(5Sa)-5-{3-chloro-2-methyl-4-[2-(4-methylpiperazin-1-yl)ethoxy]phenyl}-6-(5-ethynylfuran-2-yl)thieno[2,3-d]pyrimidin-4-yl]oxy}-3-(2-methoxyphenyl)propanoic acid]: the IC50 on Mcl-1 protein (setting [2]) is 3.8e-08 M; in test [1] (Homo sapiens, NCI-H929, 48 h), 0.347 µM.

For the molecule `Cc1cc(-c2nccc(COc3ccccc3CC(Oc3ncnc4sc(-c5ccc(F)cc5)c(-c5ccc(OCCN(C)C)c(Cl)c5C)c34)C(=O)O)n2)ccn1` [Example 136, (2R)-2-{[(5Sa)-5-{3-chloro-4-[2-(dimethylamino)ethoxy]-2-methylphenyl}-6-(4-fluorophenyl)thieno[2,3-d]pyrimidin-4-yl]oxy}-3-(2-{[2-(2-methylpyridin-4-yl)pyrimidin-4-yl]methoxy}phenyl)propanoic acid], the IC50 at Mcl-1 protein (setting [3]) is 7.7e-09 M; in test [1] (Homo sapiens, NCI-H929, 48 h), 0.015 µM.

For the molecule `Cc1c(-c2c(-c3ccc(F)cc3)sc3ncnc(OC(Cc4ccccc4OCc4ccnc(COc5ccccc5)n4)C(=O)O)c23)ccc(OCCN2CCN(C)CC2)c1Cl` [Example 46, (2R)-2-{[(5Sa)-5-{3-chloro-2-methyl-4-[2-(4-methylpiperazin-1-yl)ethoxy]phenyl}-6-(4-fluorophenyl)thieno[2,3-d]pyrimidin-4-yl]oxy}-3-(2-{[2-(phenoxymethyl)pyrimidin-4-yl]methoxy}phenyl)propanoic acid], the half-inhibitory concentration (IC50) came out at 7.3e-09 M on Mcl-1 protein (setting [3]) and 0.024 µM in test [1] (Homo sapiens, NCI-H929, 48 h).

In the case of `CCCCn1nccc1COc1ccccc1CC(Oc1ncnc2sc(-c3ccc(O)cc3)c(-c3ccc(OCCN4CCN(C)CC4)c(Cl)c3C)c12)C(=O)O` [Example 602, (2R)-3-{2-[(1-butyl-1H-pyrazol-5-yl)methoxy]phenyl}-2-{[(5Sa)-5-{3-chloro-2-methyl-4-[2-(4-methylpiperazin-1-yl)ethoxy]phenyl}-6-(4-hydroxyphenyl)thieno[2,3-d]pyrimidin-4-yl]oxy}propanoic acid], the IC50 on Mcl-1 protein (setting [2]) came to 3.7e-09 M; in test [1] (Homo sapiens, NCI-H929, 48 h), 0.156 µM.

On to `COc1ccccc1CC(Oc1ncnc2sc(-c3ccc(F)cc3F)c(-c3ccc(OCCN4CCN(C)CC4)c(Cl)c3C)c12)C(=O)O` [Example 540, (2R)-2-{[(5Sa)-5-{3-chloro-2-methyl-4-[2-(4-methylpiperazin-1-yl)ethoxy]phenyl}-6-(2,4-difluorophenyl)thieno[2,3-d]pyrimidin-4-yl]oxy}-3-(2-methoxyphenyl)propanoic acid], for which the concentration for half-maximal inhibition (IC50) was 3.2e-09 M at Mcl-1 protein (setting [2]) and 0.311 µM in test [1] (Homo sapiens, NCI-H929, 48 h).

As to `CCCCn1nccc1COc1ccccc1CC(Oc1ncnc2sc(-c3ccc(OC)nc3)c(-c3ccc(OCCN4CCN(C)CC4)c(Cl)c3C)c12)C(=O)O` [Example 608, (2R)-3-{2-[(1-butyl-1H-pyrazol-5-yl)methoxy]phenyl}-2-{[(5Sa)-5-{3-chloro-2-methyl-4-[2-(4-methylpiperazin-1-yl)ethoxy]phenyl}-6-(6-methoxypyridin-3-yl)thieno[2,3-d]pyrimidin-4-yl]oxy}propanoic acid], the IC50 at Mcl-1 protein (setting [2]) stood at 4.2e-09 M; in test [1] (Homo sapiens, NCI-H929, 48 h), 0.021 µM.

With `Cc1c(-c2c(-c3ccc(F)cc3)sc3ncnc(OC(Cc4ccccc4OCc4cnccn4)C(=O)O)c23)ccc(OCC2CCCN2C)c1Cl` [Example 143, (2R)-2-{[(5Sa)-5-{3-chloro-2-methyl-4-[(1-methylpyrrolidin-2-yl)methoxy]phenyl}-6-(4-fluorophenyl)thieno[2,3-d]pyrimidin-4-yl]oxy}-3-[2-(pyrazin-2-ylmethoxy)phenyl]propanoic acid], the IC50 on Mcl-1 protein (setting [3]) was determined as 2.6e-08 M; in test [1] (Homo sapiens, NCI-H929, 48 h), 1.61 µM.

As to `COc1cccc(CC(Oc2ncnc3sc(-c4ccco4)c(-c4ccc(OCCN5CCN(C)CC5)c(Cl)c4C)c23)C(=O)O)c1` [Example 349, (2R)-2-{[(5Sa)-5-{3-chloro-2-methyl-4-[2-(4-methylpiperazin-1-yl)ethoxy]phenyl}-6-(furan-2-yl)thieno[2,3-d]pyrimidin-4-yl]oxy}-3-(3-methoxyphenyl)propanoic acid], the half-inhibitory concentration (IC50) on Mcl-1 protein (setting [3]) was 2.7e-08 M; in test [1] (Homo sapiens, NCI-H929, 48 h), 2.46 µM.

Take `Cc1c(-c2c(-c3ccco3)sc3ncnc(OC(Cc4ccccc4OCc4cnc(N5CCCC5)nc4)C(=O)O)c23)ccc(OCCN2CCN(C)CC2)c1Cl` [Example 272, (2R)-2-{[(5Sa)-5-{3-chloro-2-methyl-4-[2-(4-methylpiperazin-1-yl)ethoxy]phenyl}-6-(furan-2-yl)thieno[2,3-d]pyrimidin-4-yl]oxy}-3-(2-{[2-(pyrrolidin-1-yl)pyrimidin-5-yl]methoxy}phenyl)propanoic acid]: the half-maximal inhibitory concentration (IC50) on Mcl-1 protein (setting [3]) came to 2.2e-08 M; in test [1] (Homo sapiens, NCI-H929, 48 h), 0.822 µM.

Take `COCCOc1ccc(-c2sc3ncnc(OC(Cc4ccccc4OCc4ccnn4CC(F)(F)F)C(=O)O)c3c2-c2ccc(OCCN3CCN(C)CC3)c(Cl)c2C)cn1` [Example 694, (2R)-2-[((5Sa)-5-{3-chloro-2-methyl-4-[2-(4-methylpiperazin-1-yl)ethoxy]phenyl}-6-[6-(2-methoxyethoxy)pyridin-3-yl]thieno[2,3-d]pyrimidin-4-yl)oxy]-3-(2-{[1-(2,2,2-trifluoroethyl)-1H-pyrazol-5-yl]methoxy}phenyl)propanoic acid]: the concentration for half-maximal inhibition (IC50) on Mcl-1 protein (setting [2]) was 6.4e-09 M; in test [1] (Homo sapiens, NCI-H929, 48 h), 0.183 µM.

Turning to `CCN(CC)CCOc1ccc(-c2c(-c3ccc(F)cc3)sc3ncnc(OC(Cc4ccccc4OCc4ccnc(-c5ccccc5F)n4)C(=O)O)c23)c(C)c1Cl` [Example 746, (2R)-2-{[(5Sa)-5-{3-chloro-4-[2-(diethylamino)ethoxy]-2-methylphenyl}-6-(4-fluorophenyl)thieno[2,3-d]pyrimidin-4-yl]oxy}-3-(2-{[2-(2-fluorophenyl)pyrimidin-4-yl]methoxy}phenyl)propanoic acid], the IC50 at Mcl-1 protein (setting [2]) is 3.5e-09 M; in test [1] (Homo sapiens, NCI-H929, 48 h), 0.111 µM.

The values are drawn from patent publication US9670227B2, “Thienopyrimidine derivatives, a process for their preparation and pharmaceutical compositions containing them” (LES LABORATOIRES SERVIER, priority 2013, dated 2017).
